According to article PMC7368294 (Proceedings of the National Academy of Sciences of the …, 2020):
Read-outs that look alike come from different tables or passages of the source.

Legend:
Experiment in all cases: cell-based
Design in all cases: species or system Xenopus laevis oocytes
Conditions in all cases: Oocyte
[1] = target: Amα1/Amα2/Amα8/Amβ1 nAChR (Apis mellifera, UniProt A0A7M7MMZ9+A0A8U0WQ70+A0A8U0WQC0+A0A8U0WQD1)
Btα1/Btα8/Btβ1 nAChR = target: T1, Btα1/Btα8/Btβ1 nAChR (Bombus terrestris, UniProt A0A9B0BGM1+A0A9B0F4H3+A0A9B2JDZ7)
T1 sequence (A0A9B0F4H3 44-615): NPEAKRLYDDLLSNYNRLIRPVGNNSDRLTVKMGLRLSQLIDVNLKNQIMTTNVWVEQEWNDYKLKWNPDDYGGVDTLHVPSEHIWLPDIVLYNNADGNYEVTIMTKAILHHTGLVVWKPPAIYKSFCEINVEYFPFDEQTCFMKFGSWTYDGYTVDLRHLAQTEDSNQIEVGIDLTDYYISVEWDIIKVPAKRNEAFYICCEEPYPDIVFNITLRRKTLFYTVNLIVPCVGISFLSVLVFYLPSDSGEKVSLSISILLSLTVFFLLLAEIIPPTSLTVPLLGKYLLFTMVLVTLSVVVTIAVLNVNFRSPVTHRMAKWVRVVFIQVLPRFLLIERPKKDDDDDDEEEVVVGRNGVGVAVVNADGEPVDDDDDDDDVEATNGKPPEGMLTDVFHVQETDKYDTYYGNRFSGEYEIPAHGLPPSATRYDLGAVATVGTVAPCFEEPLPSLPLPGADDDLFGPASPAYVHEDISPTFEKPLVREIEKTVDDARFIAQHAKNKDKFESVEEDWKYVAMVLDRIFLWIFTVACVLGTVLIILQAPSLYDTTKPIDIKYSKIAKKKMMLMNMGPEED
T1 sequence (A0A9B2JDZ7 22-535): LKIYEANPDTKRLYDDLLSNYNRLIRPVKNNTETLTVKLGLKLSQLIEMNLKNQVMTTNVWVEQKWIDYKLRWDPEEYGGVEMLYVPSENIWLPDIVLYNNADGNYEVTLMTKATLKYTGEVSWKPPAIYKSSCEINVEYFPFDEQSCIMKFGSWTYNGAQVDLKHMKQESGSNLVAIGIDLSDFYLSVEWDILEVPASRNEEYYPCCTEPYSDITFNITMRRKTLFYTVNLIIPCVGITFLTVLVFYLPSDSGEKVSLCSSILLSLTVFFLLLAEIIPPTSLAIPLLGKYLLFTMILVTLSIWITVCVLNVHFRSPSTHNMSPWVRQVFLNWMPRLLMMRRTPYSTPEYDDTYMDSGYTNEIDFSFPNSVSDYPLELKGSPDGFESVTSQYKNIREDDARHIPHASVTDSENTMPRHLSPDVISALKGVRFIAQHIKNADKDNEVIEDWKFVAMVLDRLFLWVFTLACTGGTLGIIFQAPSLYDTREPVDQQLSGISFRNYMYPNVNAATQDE
T1 sequence (A0A9B0BGM1 19-519): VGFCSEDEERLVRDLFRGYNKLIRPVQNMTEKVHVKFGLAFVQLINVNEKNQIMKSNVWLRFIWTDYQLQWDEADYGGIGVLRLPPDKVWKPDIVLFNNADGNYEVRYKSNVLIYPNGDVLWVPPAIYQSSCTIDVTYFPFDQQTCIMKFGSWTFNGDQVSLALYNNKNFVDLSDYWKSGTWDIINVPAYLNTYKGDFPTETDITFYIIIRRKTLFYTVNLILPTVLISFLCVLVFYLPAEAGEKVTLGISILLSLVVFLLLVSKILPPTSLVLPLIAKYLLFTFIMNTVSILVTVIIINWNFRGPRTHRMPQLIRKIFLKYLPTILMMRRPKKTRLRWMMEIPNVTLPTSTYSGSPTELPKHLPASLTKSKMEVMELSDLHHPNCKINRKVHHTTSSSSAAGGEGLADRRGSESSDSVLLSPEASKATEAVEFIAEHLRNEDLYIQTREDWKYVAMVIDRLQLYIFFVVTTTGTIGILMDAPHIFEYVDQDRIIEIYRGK

Dα1/Dα2/Dβ1/Dβ2 nAChR = Dα1/Dα2/Dβ1/Dβ2 nAChR (Drosophila melanogaster, UniProt P04755+P09478+P17644+P25162)

## O=[N+]([O-])NC1=NCCN1Cc1ccc(Cl)nc1 [imidacloprid]
[1]; read-out: Imidacloprid / Imax
  Emax: 7 ± 0.5%
Btα1/Btα8/Btβ1 nAChR; read-out: Imidacloprid / Imax
  Emax: 10.7 ± 1%
Dα1/Dα2/Dβ1/Dβ2 nAChR; read-out: Imidacloprid / Imax
  Emax: 59.2 ± 3%

## CN/C(=N\[N+](=O)[O-])NCc1cnc(Cl)s1 [clothianidin]
[1]; read-out: Clothianidin / Imax
  Emax: 76.6 ± 2.4%
Btα1/Btα8/Btβ1 nAChR; read-out: Clothianidin / Imax
  Emax: 75.9 ± 1.8%
Dα1/Dα2/Dβ1/Dβ2 nAChR; read-out: Clothianidin / Imax / ND
  Emax: 82.1 ± 1.7%

## N#C/N=C1\SCCN1Cc1ccc(Cl)nc1 [thiacloprid]
[1]; read-out: Thiacloprid / Imax
  Emax: 3.7 ± 0.3%
Btα1/Btα8/Btβ1 nAChR; read-out: Thiacloprid / Imax
  Emax: 9.4 ± 0.8%
Dα1/Dα2/Dβ1/Dβ2 nAChR; read-out: Thiacloprid / Imax
  Emax: 45.4 ± 1.9%
